The record followed here is publication PMC6100582 (Molecules : A Journal of Synthetic Chemistry and Natural …, 2018).

Test [1] deals with K-562 (chronic myeloid leukemia). Description: Antiproliferative screening (cytostatic activity). The class given is cell-based. The note with it: Homo sapiens, K562; 72 h, IncuCyte imaging; read-out: IC50 K-562. How it is done: (§1) All human tumor cell lines were acquired from the American Type Culture Collection (ATCC, Manassas, VA, USA), except for the DND-41 cell line which was purchased from the Deutsche Sammlung von Mikroorganismen und Zellkulturen (DSMZ Leibniz-Institut, Braunschweig, Germany) and the Hap1 cell line which was purchased from Horizon Discovery (Waterbeach, UK). […] All media were supplemented with 10% FBS (HyClone, GE Healthcare Life Sciences, USA). […] After overnight incubation, cells were treated with test compounds at four different concentrations ranging from 100 to 0.8 µM. […] Images were taken every 3 h, with one field image per well under 10× magnification. All compounds were tested with duplicate data points and averaged.

The test system of test [2] is NCI-H460 (lung carcinoma). Briefly: Antiproliferative screening (cytostatic activity). The class given is cell-based. The note with it: Homo sapiens, NCI-H460; 72 h, IncuCyte imaging; read-out: IC50 NCI-H460. How it is done:
as §1

The subject of test [3] is Z-138 (non-Hodgkin lymphoma). Description: Antiproliferative screening (cytostatic activity). The class given is cell-based. The note with it: Homo sapiens, Z-138; 72 h, IncuCyte imaging; read-out: IC50 Z-138. Here is the method: as §1
The test system of test [4] is Capan-1 (pancreatic adenocarcinoma). Briefly: Antiproliferative screening (cytostatic activity). The class given is cell-based. The note with it: Homo sapiens, CAPAN-1; 72 h, IncuCyte imaging; read-out: IC50 Capan-1. How it is done: as §1
Test [5] relates to Enterococcus faecalis ATCC 29212. Description: Antimicrobial susceptibility assay in vitro (MIC determination). The class given is cell-based.
Test [6] relates to Staphylococcus aureus ATCC 6538. The description is as above. The class given is cell-based. The note with it: ATCC6538.
The subject of test [7] is Mycobacterium marinum CAMP 5644. Briefly: Antimycobacterial susceptibility assay (MIC determination). The note with it: CAMP5644, 504 h. The class given is cell-based. Here is the method:
The broth dilution micro-method in Middlebrook 7H9 medium (Difco, Lawrence, KS, USA) supplemented with ADC Enrichment (Becton, Dickinson and Comp.) was used to determine MIC as previously described. […] Bacterial inocula were prepared by transferring colonies from culture to sterile water. The cell density was adjusted to 0.5 McFarland units using a densitometer (Densi-La-Meter, LIAP, Riga, Latvia). The final inoculum was made by 1:1000 dilution of the suspension with sterile water. Drug-free controls, sterility controls and controls consisted of medium and DMSO (Sigma-Aldrich, St. Louis, MO, USA) alone were included. […] Ciprofloxacin (CIP), rifampicin (RIF) and isoniazid (INH) (Sigma-Aldrich, St. Louis, MO, USA) were used as the standards.

Test [8] deals with DND-41 (acute lymphoblastic leukemia). Description: Antiproliferative screening (cytostatic activity). The class given is cell-based, human. The note with it: 72 h, IncuCyte imaging, read-out: IC50 DND-41. Here is the method:
Cytostatic activity was evaluated in vitro on nine different types of human tumor cell lines: Capan-1, Hap1, HCT-116, and NCI-H460, as well as hematological tumors such as DND-41, HL-60, K-562, MM.1S and Z-138 as described previously. All human tumor cell lines were acquired from the American Type Culture Collection (ATCC, Manassas, VA, USA), except for the DND-41 cell line which was purchased from the Deutsche Sammlung von Mikroorganismen und Zellkulturen (DSMZ Leibniz-Institut, Braunschweig, Germany) and the Hap1 cell line which was purchased from Horizon Discovery (Waterbeach, UK). Capan-1, Hap1, HL-60, K-562, Z-138, MM.1S and DND-41 were cultured in Iscove′s Modified Dulbecco′s Medium (IMDM, Gibco Life Technologies, Gaithersburg, MD, USA), HCT-116 were grown in McCoy′s 5A Medium (Gibco Life Technologies) and NCI-H460 were cultured in RPMI (Gibco Life Technologies). All media were supplemented with 10% FBS (HyClone, GE Healthcare Life Sciences, USA). Adherent cell lines HCT-116, Hap1, NCI-H460, and Capan-1 cells were seeded at a density between 400 and 1250 cells per well, in 384-well, black-walled, clear-bottomed tissue culture plates (Greiner Bio-One, Kremsmünster, Germany). After overnight incubation, cells were treated with test compounds at four different concentrations ranging from 100 to 0.8 µM. Suspension cell lines HL-60, K-562, Z-138, MM.1S, and DND-41 were seeded at densities ranging from 3000 to 10,000 cells per well in 384-well, black-walled, clear-bottomed tissue culture plates containing test compounds at the same four concentrations. The plates were incubated and monitored at 37 °C for 72 h in an IncuCyte (Essen BioScience Inc., Ann Arbor, MI, USA) for real-time imaging. Images were taken every 3 h, with one field image per well under 10× magnification. All compounds were tested with duplicate data points and averaged. […]

The test system of test [9] is Candida albicans ATCC 90028. Description: In vitro antifungal susceptibility testing (MIC determination). The class given is cell-based. The note with it: ATCC90028.
Test [10] has as its system Bacillus cereus ATCC 11778. Description: Minimum biofilm eradication assay. The class given is cell-based. Put shortly: (§2)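 Bacterial suspensions (10^7 CFU/mL) left to form biofilm; non-adherent cells washed off, biofilm methanol-fixed, stained with 1% crystal violet, solubilized in ethanol and read at 570 nm. MBEC taken as lowest compound dilution at which bacteria fail to grow.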

Test [11] concerns Serratia marcescens ATCC 10905. Briefly: Minimum biofilm eradication assay. The class given is cell-based. Put shortly: as §2
The subject of test [12] is Proteus mirabilis MFBF 10430. Briefly: Minimum biofilm eradication assay. The class given is cell-based. In short, it runs like this: as §2
Test [13] relates to Salmonella enteritidis MFBF 11945. Briefly: Minimum biofilm eradication assay. The class given is cell-based. Put shortly:
as §2

Test [14] deals with Staphylococcus aureus ATCC 6538. Briefly: Minimum biofilm eradication assay. The class given is cell-based. In short, it runs like this:
as §2

The subject of test [15] is Escherichia coli ATCC 10536. Briefly: Minimum biofilm eradication assay. The class given is cell-based. Put shortly:
as §2

For test [16], the system named is Pseudomonas aeruginosa ATCC 27853. Briefly: Minimum biofilm eradication assay. The class given is cell-based. In short, it runs like this:
as §2

In test [17] the test system is Acinetobacter baumannii MFBF 10913. Description: Minimum biofilm eradication assay. The class given is cell-based. In short, it runs like this: as §2
[18] abbreviates: Enterococcus faecalis, ATCC29212, 24 h.
[19] abbreviates: Mycobacterium marinum CAMP 5644, 21 days, 28 °C, read-out: MIC.
Setting [20] is: ATCC29212, Enterococcus faecalis ATCC 29212, broth dilution, 24 h, 37 °C, read-out: MIC.

Converted amounts (≈) assume the structure as drawn. Like-named read-outs stand apart in the source and are kept apart here.

What is called IC50 is the midpoint of a concentration-inhibition curve. What is called MIC is the least concentration at which growth counts as inhibited. Take `COc1cc(NC(C)CCCNC(=O)/C=C/C(=O)Nc2cccc(F)c2)c2ncccc2c1` (stereo not drawn) [Compound 4a, (2E)-N-(3-Fluorophenyl)-N′-{4-[(6-methoxyquinolin-8-yl)amino]pentyl}but-2-enediamide]: the IC50 in test [1] was determined as 31.2 µM; in [2], 15.5 µM; in test [3], 8.4 µM; in test [4], 16.9 µM; in [8] (Homo sapiens, DND41, 72 h) it was 6.7 µM. The MIC in test [5] (setting [18]) was 128 µg/mL (≈ 284 µM); in test [6], above 100 µg/mL; in test [7] (setting [19]), above 256 µg/mL; in test [9], above 100 µg/mL. In addition, the MBEC in [10] is on record as above 100 µg/mL; in [11], 25 µg/mL; in test [12], above 100 µg/mL; in test [13], above 100 µg/mL; in test [14], 12.5 µg/mL; in test [15], 100 µg/mL. The results for the MBEC in [16] and in test [17] were 25 µg/mL and 6.3 µg/mL, respectively.

Regarding `COc1cc(NC(C)CCCNC(=O)/C=C/C(=O)Nc2ccc(F)cc2)c2ncccc2c1` (stereo not drawn) [Compound 4b, (2E)-N-(4-Fluorophenyl)-N′-{4-[(6-methoxyquinolin-8-yl)amino]pentyl}but-2-enediamide], the IC50 in [1] is 70.5 µM; in [2], 29.1 µM; in [3], above 100 µM; in test [4] it was 50.5 µM; in test [8] (Homo sapiens, DND41, 72 h), above 100 µM. Besides, the minimal inhibitory concentration (MIC) is 64 µg/mL (≈ 142 µM) in test [5] (setting [20]), 12.5 µg/mL (≈ 27.7 µM) in [6], 64 µg/mL (≈ 142 µM) in test [7] (setting [19]) and above 100 µg/mL in test [9]. Further, the MBEC in [10] is given as 25 µg/mL; in test [11], above 100 µg/mL; in [12], 25 µg/mL; in test [13], above 100 µg/mL; in [14], 12.5 µg/mL; in [15], 50 µg/mL. The results for the MBEC in test [16] and in [17] were 12.5 µg/mL and 25 µg/mL, respectively.

Take `COc1cc(NC(C)CCCNC(=O)/C=C/C(=O)Nc2cccc(Cl)c2)c2ncccc2c1` (stereo not drawn) [Compound 4c, (2E)-N-(3-Chlorophenyl)-N′-{4-[(6-methoxyquinolin-8-yl)amino]pentyl}but-2-enediamide]: the IC50 in test [1] was above 100 µM; in test [2], 43.7 µM; in [3], 46.5 µM; in test [4] it was 69.9 µM; in test [8] (Homo sapiens, DND41, 72 h) it was 8.4 µM. The MIC in [5] (setting [20]) was 256 µg/mL (≈ 548 µM); in test [6] it was 12.5 µg/mL (≈ 26.8 µM); in test [7] (Mycobacterium marinum), 128 µg/mL (≈ 274 µM); in test [9], above 100 µg/mL. The MBEC in [10] is given as 25 µg/mL; in [11] it was above 100 µg/mL; in test [12] it was above 100 µg/mL; in test [13], above 100 µg/mL; in test [14], 12.5 µg/mL; in test [15], 50 µg/mL. For the same compound, the MBEC in test [16] was 50 µg/mL; in test [17], 100 µg/mL.

For the compound `COc1cc(NC(C)CCCNC(=O)/C=C/C(=O)Nc2ccc(Cl)cc2)c2ncccc2c1` (stereo not drawn) [Compound 4d, (2E)-N-(4-Chlorophenyl)-N′-{4-[(6-methoxyquinolin-8-yl)amino]pentyl}but-2-enediamide], the IC50 is above 100 µM in [1]; above 100 µM in test [2]; above 100 µM in test [3]; 91.8 µM in [4]; above 100 µM in test [8] (Homo sapiens, DND41, 72 h). Also, the minimum inhibitory concentration (MIC) in test [5] (setting [20]) is 64 µg/mL (≈ 137 µM); in [6], 6.1 µg/mL (≈ 13.1 µM); in test [7] (setting [19]), 64 µg/mL (≈ 137 µM); in test [9], 12.5 µg/mL (≈ 26.8 µM). In addition, the MBEC in [10] was above 100 µg/mL; in test [11], above 100 µg/mL; in [12], above 100 µg/mL; in test [13], above 100 µg/mL; in test [14], 25 µg/mL; in test [15] it was 50 µg/mL. In addition, the MBEC is recorded as above 100 µg/mL in test [16] and 100 µg/mL in test [17].

Turning to `COc1cc(NC(C)CCCNC(=O)/C=C/C(=O)Nc2cccc(C(F)(F)F)c2)c2ncccc2c1` (stereo not drawn) [Compound 4e, (2E)-N′-{4-[(6-Methoxyquinolin-8-yl)amino]pentyl}-N-[3-(trifluoromethyl)phenyl]but-2-enediamide], the IC50 turned out to be 71.2 µM in test [1]; 34.2 µM in [2]; 68.4 µM in [3]; 56.5 µM in test [4]; 8.9 µM in test [8] (Homo sapiens, DND41, 72 h). In addition, the MIC is 128 µg/mL (≈ 256 µM) in test [5] (setting [18]), 50 µg/mL (≈ 99.9 µM) in test [6], 256 µg/mL (≈ 511 µM) in test [7] (setting [19]) and above 100 µg/mL in [9]. Besides, the MBEC is above 100 µg/mL in [10]; above 100 µg/mL in [11]; above 100 µg/mL in test [12]; above 100 µg/mL in [13]; 50 µg/mL in [14]; 50 µg/mL in test [15]. For the same compound, the MBEC in [16] was 50 µg/mL; in [17], 100 µg/mL.

With `COc1cc(NC(C)CCCNC(=O)/C=C/C(=O)Nc2ccc(C(F)(F)F)cc2)c2ncccc2c1` (stereo not drawn) [Compound 4f, (2E)-N′-{4-[(6-Methoxyquinolin-8-yl)amino]pentyl}-N-[4-(trifluoromethyl)phenyl]but-2-enediamide], the IC50 is above 100 µM in [1]; above 100 µM in [2]; above 100 µM in [3]; 79.4 µM in [4]; above 100 µM in test [8]. The minimum inhibitory concentration (MIC) was 64 µg/mL (≈ 128 µM) in [5] (setting [20]), 50 µg/mL (≈ 99.9 µM) in test [6], 64 µg/mL (≈ 128 µM) in [7] (setting [19]) and above 100 µg/mL in [9]. Besides, the MBEC in [10] is listed as above 100 µg/mL; in test [11], above 100 µg/mL; in test [12] it was above 100 µg/mL; in [13], above 100 µg/mL; in test [14] it was 25 µg/mL; in [15], 50 µg/mL. Further, the MBEC was 25 µg/mL in test [16] and 100 µg/mL in [17].
